According to PubChem BioAssay (NCI):
Values joined by “and” are separate entries in the source; they are usually repeats but may differ in a detail not shown here. Equal entries are not always repeated.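 Each compound was tested at five concentrations against cells in 96-well plates for 48 hours. GI50 = concentration required for 50% inhibition of growth. The concentration for full growth arrest is given as TGI.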

Legend:
Assay in all cases: DTP human tumour cell line panel, 48 h
[1] = test system: 786-0 renal
[2] = test system: HCC-2998 colon
[3] = test system: HOP-62 NSCLC
[4] = test system: HS 578T breast
[5] = test system: HT29 colon
[6] = test system: NCI-H226 lung
[7] = test system: PC-3 prostate
[8] = test system: SK-OV-3 ovarian
[9] = test system: SN12C renal
[10] = test system: MCF7 breast

| Compound | TGI [1] | TGI [2] | TGI [3] | TGI [4] | TGI [5] | TGI [6] | TGI [7] | TGI [8] | TGI [9] | GI50 [1] | GI50 [2] | GI50 [3] | GI50 [5] | GI50 [10] | TGI [10] | GI50 [6] | GI50 [7] | GI50 [8] | GI50 [4] | GI50 [9] |
| --- | --- | --- | --- | --- | --- | --- | --- | --- | --- | --- | --- | --- | --- | --- | --- | --- | --- | --- | --- | --- |
| COC(=O)[C@@H]1c2cc3c(c(O)c2[C@@H](OC2OC(C)C(OC)C(C)(OC)C2OC)C[C@]1(C)O)C(=O)c1c(O)cc2c(c1C3=O)O[C@H]1O[C@]2(C)[C@H](O)[C@@H](N(C)C)[C@@H]1O (stereo not given in full) | 2.1 µM | 0.0305 µM and 0.0223 µM | 0.328 µM and 0.0435 µM | 0.147 µM | 10.1 µM | 0.0718 µM and 0.0966 µM | 0.297 µM | 4.94 µM | 2 µM | – | – | – | – | – | – | – | – | – | – | – |
| NC(=O)NNC(=O)CCn1[nH]c(=O)c(Cl)c(Cl)c1=O | > 100 µM | > 100 µM | > 100 µM | – | > 100 µM | > 100 µM | – | > 100 µM | > 100 µM | – | – | – | – | – | – | – | – | – | – | – |
| CC1(C)OC2C(CCP(=O)(O)O)OC(c3nc(C(N)=O)cs3)C2O1 (stereo not given) | > 100 µM | > 100 µM | – | – | > 100 µM | > 100 µM | – | > 100 µM | > 100 µM | – | – | – | – | – | – | – | – | – | – | – |
| COc1cc(/C=C2\CC3C4CC=C5C[C@@H](OC(C)=O)CC[C@]5(C)C4CC[C@]3(C)C2=O)ccc1OCCN1CCCCC1 (stereo not given in full) | 3.1 µM | 6.59 µM | 25.9 µM | – | > 100 µM | 28.6 µM | 11.2 µM | 8.5 µM | – | 1.66 µM | 2.7 µM | 12.1 µM | 1.88 µM | 2.07 µM | 5.53 µM | 11.8 µM | 3.51 µM | 2.75 µM | – | – |
| O=C(O)c1cc(-c2ccc3cc4c(cc3c2)OCO4)nc2ccccc12 | > 100 µM | – | > 100 µM | > 100 µM | > 100 µM | > 100 µM | > 100 µM | > 100 µM | > 100 µM | – | – | – | – | – | > 100 µM | – | – | – | – | – |
| NS(=O)(=O)OC[C@H]1C[C@@H](Nc2ccnc3cc(-c4cccc(SC(F)(F)F)c4)nn23)[C@H](O)[C@@H]1O | 0.19 µM | 0.0442 µM | 0.0489 µM | 1.95 µM | 0.552 µM | – | 0.367 µM | 0.0769 µM | 0.319 µM | 0.0472 µM | 0.022 µM | 0.0173 µM | 0.249 µM | 0.0214 µM | 0.173 µM | – | 0.0378 µM | 0.0271 µM | 0.0351 µM | 0.0462 µM |
| CN(Cc1ccccc1)Cn1ccnc1 | > 100 µM | – | > 100 µM | > 100 µM | > 100 µM | > 100 µM | > 100 µM | > 100 µM | > 100 µM | – | – | – | – | – | > 100 µM | – | – | – | – | – |
| Cc1nn(CNc2ccccc2C(F)(F)F)c(=S)n1/N=C/c1cccc2cccnc12 | > 100 µM | > 100 µM | > 100 µM | > 100 µM | – | > 100 µM | > 100 µM | > 100 µM | 72.7 µM | > 100 µM | > 100 µM | > 100 µM | – | 54.9 µM | > 100 µM | 56.2 µM | 79.1 µM | > 100 µM | > 100 µM | 19.9 µM |
| O=c1c2ccccc2sc2c(NCCCNCCO)nc3ccccc3c12 | 2.92 µM | 3.64 µM | 2.82 µM | 5.65 µM | 2.97 µM | 2.95 µM | 2.98 µM | 7.31 µM | 3.24 µM | 1.49 µM | 1.72 µM | 1.34 µM | 1.51 µM | – | – | 1.41 µM | 1.49 µM | 2.14 µM | 1.67 µM | 1.47 µM |
| CCOC(=O)Cc1c(C)c2cc(C(=O)c3ccccc3)c(O)cc2oc1=O | > 100 µM | > 100 µM | > 100 µM | 97.1 µM | > 100 µM | > 100 µM | 81.2 µM | – | > 100 µM | – | – | – | – | – | 63.9 µM | – | – | – | – | – |
| N#C/C(=C\c1cc(O)cc(O)c1)C(N)=O | > 100 µM | > 100 µM | > 100 µM | – | > 100 µM | > 100 µM | – | > 100 µM | > 100 µM | – | – | – | – | – | – | – | – | – | – | – |
| O=C1C=C(Nc2ccc(Cl)cc2Cl)c2ccccc2C1=O | > 100 µM | > 100 µM | > 100 µM | – | > 100 µM | 87.2 µM | – | > 100 µM | > 100 µM | – | – | – | – | – | – | – | – | – | – | – |
| C=CSCCC(N)C(=O)O (stereo not given) | > 100 µM | > 100 µM | > 100 µM | – | > 100 µM | > 100 µM | – | – | > 100 µM | – | – | – | – | – | – | – | – | – | – | – |
| O=C(/C=C\c1ccccc1O)c1ccc(O)cc1O | > 100 µM | > 100 µM | > 100 µM | – | > 100 µM | > 100 µM | – | > 100 µM | > 100 µM | – | – | – | – | – | – | – | – | – | – | – |
| C=C[C@@H](C)[C@]1(C(=O)OC)CCCC12OCCO2 | > 100 µM | > 100 µM | > 100 µM | – | > 100 µM | > 100 µM | – | > 100 µM | > 100 µM | – | – | – | – | – | – | – | – | – | – | – |
| CC(C)(C)C1=CC(=C(P(=O)(O)O)P(=O)(O)O)C=C(C(C)(C)C)C1=O | > 50 µM | > 50 µM | > 50 µM | – | > 50 µM | > 50 µM | – | > 50 µM | – | – | – | – | – | – | – | – | – | – | – | – |
| CC(=O)Nc1ccc(/C=C/C(=O)c2sc(-c3cccnc3)nc2C)cc1 | > 100 µM | > 100 µM | > 100 µM | – | > 100 µM | > 100 µM | – | > 100 µM | > 100 µM | – | – | – | – | – | – | – | – | – | – | – |
| CN(CCS(=O)(=O)N1C(=O)C2CCCN2C(=O)[C@@H]1Cc1ccccc1)C(=O)OCc1ccccc1 (stereo not given in full) | > 100 µM | > 100 µM | > 100 µM | – | > 100 µM | > 100 µM | – | > 100 µM | > 100 µM | – | – | – | – | – | – | – | – | – | – | – |
| O=C(CCC(=O)Nc1ccc(Cl)c(Cl)c1)Cc1nc2ccccc2o1 | > 100 µM | > 100 µM | > 100 µM | – | > 100 µM | > 100 µM | – | > 100 µM | > 100 µM | – | – | – | – | – | – | – | – | – | – | – |
| NCCSSCc1ccccc1CSSCCN | > 100 µM | > 100 µM | > 100 µM | – | > 100 µM | > 100 µM | – | > 100 µM | > 100 µM | – | – | – | – | – | – | – | – | – | – | – |
| CC1Cc2c(Cl)ncnc2N(C)c2ccc(Cl)cc21 (stereo not given) | > 100 µM | 58.1 µM | 11.1 µM | > 100 µM | 0.846 µM | 0.602 µM | > 100 µM | 12.9 µM | 19.3 µM | 0.321 µM | 0.307 µM | 0.339 µM | 0.232 µM | – | – | 0.241 µM | 0.386 µM | 0.372 µM | 0.342 µM | 0.411 µM |
